The values below come from US20150239889A1, “PYRAZOLOPYRIMIDINE COMPOUND” (MITSUBISHI TANABE PHARMA CORPORATION, priority 2012, published 2015).

In one assay the target is T1, human HIF-PHD3 (Homo sapiens, UniProt Q9H6Z9).
T1 construct: purchased CrystalGenomics Ltd
As to the kind of experiment: HIF-PHD inhibition assay (fluorescence polarization), human HIF-PHD3. The class given is biochemical. The following applies: 2-oxoglutaric acid 166 μmol/L. In short, it runs like this: (§1)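 FP readout; enzyme activity = mP post-enzyme − mP pre-enzyme. FAM-labelled probe, ACA spacer.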
For orientation: Polarisation of emitted light reports the rotation of a fluorescent probe.

Another assay addresses T2, human HIF-PHD2 (Homo sapiens, UniProt Q9GZT9).
T2 construct: purchased CrystalGenomics Ltd
Description: HIF-PHD inhibition assay (fluorescence polarization), human HIF-PHD2. The conditions noted are these: 2-oxoglutaric acid 3.33 μmol/L. Type of assay: biochemical. Summed up:
as §1

The next assay has as its system Hep3B cells. Description: EPO production assay (ELISA of culture supernatant). Type of assay: cell-based. The conditions noted are these: Homo sapiens, 3 μmol/L test compound, 48 hours, relative to control (0.1% DMSO), read-out: EPO production stimulation rate with 3 μmol/L test compound. Here is the method:
The stimulatory effect of the compound onEPO production was determined as follows using Hep3B cells.
Cells were seeded on 96 well plates at 40000 cells/well, and the plate was incubated overnight in MEM medium containing 10% fetal bovine serum (FBS) at 37° C. under 5% CO2. The next day, the medium was replaced with MEM containing 0.5% FBS, followed by addition of test compound. The test compound was dissolved in dimethyl sulfoxide and added to the cell so that the final concentration of dimethyl sulfoxide was 0.1%. After incubation for additional 48 hours, the culture supernatant was collected, and EPO contained in the supernatant was determined using ELISA kit (EPO ELISA Kit 11-693-417-001, Roche Co.). The results were expressed as stimulation rate of EPO production (fold), which was calculated as the relative value of the EPO production with 3 μmol/L of the test compound compared to the EPO production without stimulation (control).
Stimulation rate of EPO production (fold)=(EPO production with addition of test compound)/(EPO production of control)
(ELISA stands for enzyme-linked immunosorbent assay.)

pIC50: −log10 of the molar value.

T2 sequence (Q9GZT9 2-426 limits assumed): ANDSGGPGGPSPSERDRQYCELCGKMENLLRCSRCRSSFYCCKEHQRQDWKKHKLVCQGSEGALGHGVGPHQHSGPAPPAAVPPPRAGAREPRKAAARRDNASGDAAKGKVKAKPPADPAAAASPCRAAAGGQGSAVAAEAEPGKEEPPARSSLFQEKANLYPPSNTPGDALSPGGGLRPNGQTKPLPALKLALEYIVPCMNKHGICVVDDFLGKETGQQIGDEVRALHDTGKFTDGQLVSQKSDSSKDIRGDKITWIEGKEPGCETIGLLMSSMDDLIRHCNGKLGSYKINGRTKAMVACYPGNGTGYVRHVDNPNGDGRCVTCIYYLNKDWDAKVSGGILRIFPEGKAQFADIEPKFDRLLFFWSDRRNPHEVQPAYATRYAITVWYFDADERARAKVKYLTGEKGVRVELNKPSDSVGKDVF
T1 sequence (Q9H6Z9 whole entry): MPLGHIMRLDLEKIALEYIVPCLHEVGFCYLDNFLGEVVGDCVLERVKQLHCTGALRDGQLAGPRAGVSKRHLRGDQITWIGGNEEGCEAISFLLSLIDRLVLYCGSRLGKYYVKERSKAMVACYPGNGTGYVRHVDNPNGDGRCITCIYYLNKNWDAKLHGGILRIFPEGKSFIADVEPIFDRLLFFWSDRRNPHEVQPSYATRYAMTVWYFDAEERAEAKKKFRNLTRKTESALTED

Usually pIC50 stands for the IC50 on a negative log10 scale, so that one unit is a factor of ten. A high value points to a small IC50. Regarding `O=C(O)c1cnn(-c2nc(O)c3c(cnn3Cc3cccc(-c4ccc(OC(F)(F)F)cc4)c3)n2)c1` [Example 43], the pIC50 was 6.70 on human HIF-PHD3 and 7.82 against human HIF-PHD2. Further, the fold induction at 3 µM in the assay with Hep3B cells was 6.5.
As to `Cc1nn(Cc2ccc(-c3ccccc3)cc2)c2c(O)nc(-n3cc(C(=O)O)cn3)nc12` [Example 228], the negative logarithm of the IC50 (pIC50) against human HIF-PHD3 was 7.17; on human HIF-PHD2, 8.00. In addition, the fold induction at 3 µM in the assay on Hep3B cells came to 3.9.
The like results for `O=C(O)c1cnn(-c2nc(O)c3nn(CCC(c4ccccc4)c4ccccc4)cc3n2)c1` [Example 248] were, in that order, 7.00, 7.82 and 3.2.
As for `O=C(O)c1cnn(-c2nc(O)c3c(n2)c(F)nn3Cc2ccc3ccccc3c2)c1` [Example 216], the figures for the pIC50 on human HIF-PHD3 and on human HIF-PHD2 were 6.52 and 7.82, respectively. Besides, the fold induction at 3 µM in the assay with Hep3B cells was found to be 1.5.
Regarding `O=C(O)c1cnn(-c2nc(O)c3c(cnn3CCCOc3ccc(Cl)c(C(F)(F)F)c3)n2)c1` [Example 177], the values for the negative-log IC50 (pIC50) against human HIF-PHD3 and on human HIF-PHD2 were 6.77 and 7.55, respectively. Further, the fold induction at 3 µM with Hep3B cells was 9.1.
On to `O=C(O)c1cnn(-c2nc(O)c3nn(Cc4cccc(-c5ccccc5)c4)cc3n2)c1` [Example 240], for which the values for the negative-log IC50 (pIC50) at human HIF-PHD3 and against human HIF-PHD2 were 6.85 and 7.77, respectively. The fold induction at 3 µM in the assay on Hep3B cells came out at 1.
For `Cc1nn(CC2CCCCCC2)c2c(O)nc(-n3cc(C(=O)O)cn3)nc12` [Example 473], the negative-log IC50 (pIC50) on human HIF-PHD3 is 5.92; against human HIF-PHD2 it was 7.32. For the same molecule, the fold induction at 3 µM in the assay on Hep3B cells was determined as 2.
`O=C(O)c1cnn(-c2nc(O)c3c(cnn3CC[C@H]3CC[C@H](c4ccccc4)CC3)n2)c1` [Example 163]: the values for the pIC50 at human HIF-PHD3 and against human HIF-PHD2 were 6.92 and 7.72, respectively. Besides, in the assay on Hep3B cells, the fold induction at 3 µM is 13.
Turning to `O=C(O)c1cnn(-c2nc(O)c3c(cnn3Cc3cc(F)cc(C(F)(F)F)c3)n2)c1` [Example 8], the pIC50 against human HIF-PHD3 is 6.25; at human HIF-PHD2 it was 7.32. For the same molecule, in the assay with Hep3B cells, the fold induction at 3 µM came out at 5.4.
The like results for `C[C@H](c1ccc(-c2ccccc2)cc1)n1ncc2nc(-n3cc(C(=O)O)cn3)nc(O)c21` [Example 109] were, in that order, 6.59, 7.62 and 20.
With `C[C@@H](c1ccc(Cl)cc1)n1ncc2nc(-n3cc(C(=O)O)cn3)nc(O)c21` [Example 21], the pIC50 against human HIF-PHD3 is 6.28; against human HIF-PHD2, 7.77. Also, the fold induction at 3 µM in the assay with Hep3B cells worked out at 7.5.
With `O=C(O)c1cnn(-c2nc(O)c3c(cnn3CC3CCC4(CCC4)CC3)n2)c1` [Example 379], the pIC50 was 6.70 against human HIF-PHD3 and 7.80 at human HIF-PHD2. Moreover, in the assay with Hep3B cells, the fold induction at 3 µM is 10.
Consider `CC1(C)C(Cn2ncc3nc(-n4cc(C(=O)O)cn4)nc(O)c32)C1(C)C` [Example 162], for which the pIC50 against human HIF-PHD3 is 6.40; against human HIF-PHD2, 7.28. In the assay with Hep3B cells, the fold induction at 3 µM was found to be 18.
Consider `O=C(O)c1cnn(-c2nc(O)c3c(cnn3Cc3ccc(Cl)c(F)c3)n2)c1` [Example 7], for which the pIC50 was 6.49 against human HIF-PHD3 and 7.64 on human HIF-PHD2. Also, the fold induction at 3 µM with Hep3B cells was 3.4.
For the molecule `O=C(O)c1cnn(-c2nc(O)c3c(cnn3Cc3cc(F)cc(Br)c3)n2)c1` [Example 15], the negative-log IC50 (pIC50) on human HIF-PHD3 is 6.54; against human HIF-PHD2, 7.28. In addition, in the assay on Hep3B cells, the fold induction at 3 µM is 1.7.
The like results for `O=C(O)c1cnn(-c2nc(O)c3c(cnn3CC3CCC4(CC3)CC4)n2)c1` [Example 378] were, in that order, 6.54, 7.64 and 9.6.
Regarding `Cc1cccc(C)c1-c1ccc(Cn2ncc3nc(-n4cc(C(=O)O)cn4)nc(O)c32)cc1` [Example 68], the pIC50 was 6.80 on human HIF-PHD3 and 7.64 against human HIF-PHD2. Besides, the fold induction at 3 µM in the assay with Hep3B cells amounted to 9.5.
`C[C@H]1CC[C@H](Cn2nc(F)c3nc(-n4cc(C(=O)O)cn4)nc(O)c32)CC1` [Example 218]: the figures for the negative-log IC50 (pIC50) against human HIF-PHD3 and against human HIF-PHD2 were 6.12 and 7.82, respectively. Besides, the fold induction at 3 µM with Hep3B cells turned out to be 3.
